Laboratory results from patent publication US20020193425A1, “Cancer chemopreventative compounds and compositions and methods of treating cancers” (priority 2001, published 2002).
Values after ≈ are worked out from the molar mass of the structure shown.

Columns and labels:
Format in all cases: cell-based
c-Myc oncoprotein, Daudi = experiment: c-Myc oncoprotein expression, western blotting
Experimental: (§1) The expression of c-Myc was assessed by immunoblots as previously described. In brief, cells (10^6) were treated and harvested at various time intervals, and whole-cell pellets were lysed with detergent lysis buffer (1 ml/10^7 cells, 50 mM Tris-HCl buffer, pH 8.0, 150 mM NaCl, 1 mM DTT, 0.5 mM EDTA, 1% Nonidet® P40, 0.5% sodium deoxycholate, 0.1% sodium dodecylsulfate, 100 μg/ml phenylmethylsulfonyl fluoride, 1 μg/ml aprotinin, 2 μg/ml leupeptin and 100 μM sodium vanadate) to obtain protein lysates. Protein concentrations were quantified using a bicinchoninic acid kit. Since c-Myc is a labile protein, cell lysates were not frozen, but stored at 4° C., until all protein lysates were prepared for a particular cell line, and then western blots were performed immediately. Total protein ([…]) was separated by 10% SDS-PAGE, electroblotted to PVDF membranes, and blocked overnight with 5% nonfat dry milk. The membrane was incubated with a solution of the primary antibody (2.5 μg/ml), prepared in 1% blocking solution, for 2 h at room temperature, washed three-times for 15 min with PBS-T (PBS with 0.1%, v/v, Tween 20), and incubated with a 1:2500 dilution of horseradish peroxidase-conjugated secondary antibody for 30 min at 37° C. Blots were again washed three-times for 10 min each in PBS-T and developed by enhanced chemiluminescence (Amersham). Membranes were exposed to Kodak Biomax film and the resulting film was analyzed using Kodak 1D Image Analysis software. Membranes were then stripped and reprobed for the quantification of bactin.
(§2) Cells were treated with solvent (0.1% v/v DMSO, control), brusatol (25 ng/ml) or bruceantin (10 ng/ml) for 4 or 24 h, then analyzed by western blotting. Membranes were probed for c-Myc, and then stripped and probed for β-actin as an internal control.
(§3) Cells were treated with brusatol (25 ng/ml) or bruceantin (10 ng/ml) for 4 or 24 h, and then analyzed for c-Myc and β-actin expression using western blotting techniques. Results are expressed as percentage of c-Myc oncoprotein of control (0.1%, v/v, DMSO treated cells) values. Results were normalized relative to β-actin.

c-Myc oncoprotein, Reh = experiment: c-Myc oncoprotein expression, western blotting
Experimental: as §1, §2, §3

c-Myc oncoprotein, BV173 = experiment: c-Myc oncoprotein expression, western blotting
Experimental: as §1, §2, §3

[1] = tested on: c-Myc oncoprotein, RS4;11; experiment: c-Myc oncoprotein expression, western blotting
Experimental: as §1, §2, §3

[2] = tested on: c-Myc oncoprotein, SUPB13; experiment: c-Myc oncoprotein expression, western blotting
Experimental: as §1, §2, §3

c-Myc oncoprotein, K562 = experiment: c-Myc oncoprotein expression, western blotting
Experimental: as §1, §2, §3

c-Myc oncoprotein, U937 = experiment: c-Myc oncoprotein expression, western blotting
Experimental: as §1, §2, §3

[3] = tested on: c-Myc oncoprotein, Kasumi-1; experiment: c-Myc oncoprotein expression, western blotting
Experimental: as §1, §2, §3

c-Myc oncoprotein, NB4 = experiment: c-Myc oncoprotein expression, western blotting
Experimental: as §1, §2, §3

[4] = tested on: HL-60 (human promyelocytic) cells; experiment: HL-60 cell proliferation assay of quassinoids, [3H]thymidine incorporation; conditions: for IC50: Homo sapiens, 4-day incubation, [3H]thymidine incorporation, read-out: inhibition of proliferation (IC50); for selectivity index: ratio of cytotoxic IC50 over antiproliferative IC50
Experimental: Induction of differentiation was determined by the ability of treated cells to produce superoxide anions (nitroblue tetrazolium (NBT)-reduction), a functional marker of mature macrophages or granulocytes. Proliferation capacity is equivalent to cell growth and was measured by incorporation of [3H]thymidine into DNA over a period of 18 h, and cytotoxic activity was evaluated by the loss of membrane integrity as shown by trypan blue exclusion. […] Although members of the brusatol and glaucarubolone series were active, when comparing members of both series that varied only in the positioning of the epoxymethano bridge, great differences were noted, as shown with yadianzolide C (5) and glaucarubolone (24), and analogues 4 (brusatol series) and 32 (glaucarubolone series).
HL-60 (human promyelocytic) cells were tested using a 4-day incubation protocol. In brief, cells in log phase (approximately 10^6 cells/mL) were diluted to […] and preincubated overnight (18 h) in 24-well plates to allow cell-growth recovery. Then, samples dissolved in DMSO were added, keeping the final DMSO concentration at 0.1% (v/v). Control cultures were treated with the same concentration of DMSO. After 4 days of incubation, the cells were analyzed to determine the percentage of cells undergoing maturation as determined by NBT reduction. Concomitantly, the effect on viability and proliferation of HL-60 cells was determined. In each experiment, 1α, 25-dihydroxyvitamin D3 (EC50=0.01 μM) and brusatol (EC50=0.07 μM) were used as reference controls. EC50 and IC50 values were calculated using 5-7 test concentrations (in duplicate), and consistent results were obtained, indicating the data reported for the related quassinoids are reliable.
(3) Cell Proliferation Assay. […] Cells were then collected on glass fiber filters (90×120 mm; Wallac, Turku, Finland) using a TOMTEC Harvester 96®.

U937 = experiment: Antiproliferative activity, [3H]thymidine incorporation; conditions: four days
Experimental: (§4) Cellular viability was monitored by Trypan blue exclusion.
(§5) ^bproliferation was assayed by [^3H]thymidine incorporation with quadruplicate samples, as described under “Materials and methods”.

DHL-6 = experiment: as above; conditions: four days
Experimental: as §4, §5

NB4 = experiment: as above; conditions: four days
Experimental: as §4, §5

Daudi = experiment: as above; conditions: four days
Experimental: as §4, §5

RS4;11 = experiment: as above; conditions: Homo sapiens, 96 h, four days, read-out: Antiproliferative Activity (IC50, ng/ml)
Experimental: as §4, §5

HL-60 = experiment: as above; conditions: Homo sapiens, 96 h, four days, read-out: Antiproliferative Activity (IC50, ng/ml)
Experimental: as §4, §5

K562 = experiment: as above; conditions: Homo sapiens, 96 h, four days, read-out: Antiproliferative Activity (IC50, ng/ml)
Experimental: as §4, §5

## COC(=O)[C@@]12OC[C@]34[C@H]([C@@H](O)[C@@H]1O)[C@@]1(C)CC(=O)C(O)=C(C)[C@@H]1C[C@H]3OC(=O)[C@H](OC(=O)C=C(C)C)[C@@H]24 [compound 1, brusatol]
c-Myc oncoprotein, Daudi; Brusatol (25 ng/ml), 4 h
  c-Myc oncoprotein, percentage of control: 79%
c-Myc oncoprotein, Daudi; Brusatol (25 ng/ml), 24 h
  c-Myc oncoprotein, percentage of control: 10%
c-Myc oncoprotein, Reh; Brusatol (25 ng/ml), 4 h
  c-Myc oncoprotein, percentage of control: 66%
c-Myc oncoprotein, Reh; Brusatol (25 ng/ml), 24 h
  c-Myc oncoprotein, percentage of control: 32%
c-Myc oncoprotein, BV173; Brusatol (25 ng/ml), 4 h
  c-Myc oncoprotein, percentage of control: 22%
c-Myc oncoprotein, BV173; Brusatol (25 ng/ml), 24 h
  c-Myc oncoprotein, percentage of control: 41%
[1]; RS4,11, Brusatol (25 ng/ml), 24 h
  c-Myc oncoprotein, percentage of control: 10%
[1]; RS4;11, Brusatol (25 ng/ml), 4 h
  c-Myc oncoprotein, percentage of control: 20%
[2]; Brusatol (25 ng/ml), 4 h
  c-Myc oncoprotein, percentage of control: 52%
[2]; Brusatol (25 ng/ml), 24 h
  c-Myc oncoprotein, percentage of control: 41%
c-Myc oncoprotein, K562; 4 h treatment
  decrease of c-Myc protein levels: 94%
c-Myc oncoprotein, K562; Brusatol (25 ng/ml), 4 h
  c-Myc oncoprotein, percentage of control: 6%
c-Myc oncoprotein, K562; Brusatol (25 ng/ml), 24 h
  c-Myc oncoprotein, percentage of control: 13%
c-Myc oncoprotein, U937; Brusatol (25 ng/ml), 4 h
  c-Myc oncoprotein, percentage of control: 5%
c-Myc oncoprotein, U937; Brusatol (25 ng/ml), 24 h
  c-Myc oncoprotein, percentage of control: 12%
[3]; Brusatol (25 ng/ml), 4 h
  c-Myc oncoprotein, percentage of control: 66%
[3]; Brusatol (25 ng/ml), 24 h
  c-Myc oncoprotein, percentage of control: 112%
c-Myc oncoprotein, NB4; Brusatol (25 ng/ml), 4 h
  c-Myc oncoprotein, percentage of control: 0%
c-Myc oncoprotein, NB4; Brusatol (25 ng/ml), 24 h
  c-Myc oncoprotein, percentage of control: 0%
[4]
  IC50: 0.07 ± 0.007 µM
  selectivity index: 2.5 ± 0.3
U937
  Antiproliferative Activity (IC50, ng/ml): No effect
DHL-6
  Antiproliferative Activity (IC50, ng/ml): No effect
NB4
  Antiproliferative Activity (IC50, ng/ml): No effect
Daudi
  Antiproliferative Activity (IC50, ng/ml): No effect
RS4;11
  IC50: 12.5 ± 0.6 ng/mL (≈ 0.024 µM)
HL-60
  IC50: 25 ± 0.5 ng/mL (≈ 0.048 µM)
K562
  IC50: 10 ± 0.2 ng/mL (≈ 0.0192 µM)

## COC(=O)[C@@]12OC[C@]34[C@H]([C@@H](O)[C@@H]1O)[C@@]1(C)CC(=O)C(O)=C(C)[C@@H]1C[C@H]3OC(=O)[C@H](OC(=O)/C=C(\C)C(C)C)[C@@H]24 [compound 2, bruceantin]
c-Myc oncoprotein, Daudi; Bruceantin (10 ng/ml), 4 h
  c-Myc oncoprotein, percentage of control: 67%
c-Myc oncoprotein, Daudi; Bruceantin (10 ng/ml), 24 h
  c-Myc oncoprotein, percentage of control: 2%
c-Myc oncoprotein, Reh; Bruceantin (10 ng/ml), 4 h
  c-Myc oncoprotein, percentage of control: 44%
c-Myc oncoprotein, Reh; Bruceantin (10 ng/ml), 24 h
  c-Myc oncoprotein, percentage of control: 40%
c-Myc oncoprotein, BV173; Bruceantin (10 ng/ml), 4 h
  c-Myc oncoprotein, percentage of control: 28%
c-Myc oncoprotein, BV173; Bruceantin (10 ng/ml), 24 h
  c-Myc oncoprotein, percentage of control: 12%
[1]; RS4;11, Bruceantin (10 ng/ml), 4 h
  c-Myc oncoprotein, percentage of control: 140%
[1]; RS4;11, Bruceantin (10 ng/ml), 24 h
  c-Myc oncoprotein, percentage of control: 6%
[2]; Bruceantin (10 ng/ml), 4 h
  c-Myc oncoprotein, percentage of control: 42%
[2]; Bruceantin (10 ng/ml), 24 h
  c-Myc oncoprotein, percentage of control: 63%
c-Myc oncoprotein, K562; Bruceantin (10 ng/ml), 4 h
  c-Myc oncoprotein, percentage of control: 2%
c-Myc oncoprotein, K562; Bruceantin (10 ng/ml), 24 h
  c-Myc oncoprotein, percentage of control: 12%
c-Myc oncoprotein, U937; Bruceantin (10 ng/ml), 4 h
  c-Myc oncoprotein, percentage of control: 40%
c-Myc oncoprotein, U937; Bruceantin (10 ng/ml), 24 h
  c-Myc oncoprotein, percentage of control: 44%
[3]; Bruceantin (10 ng/ml), 4 h
  c-Myc oncoprotein, percentage of control: 70%
[3]; Bruceantin (10 ng/ml), 24 h
  c-Myc oncoprotein, percentage of control: 87%
c-Myc oncoprotein, NB4; Bruceantin (10 ng/ml), 4 h
  c-Myc oncoprotein, percentage of control: 0%
c-Myc oncoprotein, NB4; Bruceantin (10 ng/ml), 24 h
  c-Myc oncoprotein, percentage of control: 0%
[4]
  IC50: 0.04 ± 0.003 µM
  selectivity index: 1.0 ± 0.2
U937
  Antiproliferative Activity (IC50, ng/ml): No effect
DHL-6
  Antiproliferative Activity (IC50, ng/ml): No effect
NB4
  Antiproliferative Activity (IC50, ng/ml): No effect
Daudi
  Antiproliferative Activity (IC50, ng/ml): No effect
RS4;11
  IC50: 5.4 ± 0.9 ng/mL (≈ 0.00984 µM)
HL-60
  IC50: 20 ± 0.1 ng/mL (≈ 0.0365 µM)
K562
  IC50: 6 ± 0.1 ng/mL (≈ 0.0109 µM)
